From patent publication US20220340633A1 (Adepthera LLC, priority 2016, published 2022)
Entries after “also recorded” stand apart in the source; their conditions may differ.

Assays:
CLR/RAMP1 receptor = CLR/RAMP1 receptor (Homo sapiens, UniProt O60894+Q16602); conditions: for receptor specificity of antagonist: CLR/RAMP1 versus CLR/RAMP2
Protocol: Using a receptor activation assay, the dose-dependent stimulatory response of peptide agonists of the present invention on a CLR/RAMP1 receptor, a CLR/RAMP2, or a CLR/RAMP3 receptor complex was determined. A cell line carrying the recombinant CLR/RAMP1, CLR/RAMP2, or a CLR/RAMP3 receptor was employed in the assay. Peptide agonist activities were tested, in duplicate, at 10 different concentrations, starting with 1.0 μM and serially diluted 3-fold, in DMSO. […] The CLR/RAMP1 cAMP, CLR/RAMP2 arrestin assays, and CLR/RAMP3 cAMP (DiscoveRx, Fremont, Calif.) were used.
For the analysis of antagonistic activity, the synthetic analogs were pre-incubated with the cells before adding the reference ligand at its EC80.

[1] = system: primary human lymphatic endothelia cells (HLEC); test: HLEC survival in medium with 0.1% FBS, MTS assay; conditions: 30, 100, and 300 nM, 72 hrs
Protocol: The cells were cultured for 72 hrs, and cell viability was assayed with the MTS assay (Promega).

Sequence of CLR/RAMP1 receptor (Q16602 23-461): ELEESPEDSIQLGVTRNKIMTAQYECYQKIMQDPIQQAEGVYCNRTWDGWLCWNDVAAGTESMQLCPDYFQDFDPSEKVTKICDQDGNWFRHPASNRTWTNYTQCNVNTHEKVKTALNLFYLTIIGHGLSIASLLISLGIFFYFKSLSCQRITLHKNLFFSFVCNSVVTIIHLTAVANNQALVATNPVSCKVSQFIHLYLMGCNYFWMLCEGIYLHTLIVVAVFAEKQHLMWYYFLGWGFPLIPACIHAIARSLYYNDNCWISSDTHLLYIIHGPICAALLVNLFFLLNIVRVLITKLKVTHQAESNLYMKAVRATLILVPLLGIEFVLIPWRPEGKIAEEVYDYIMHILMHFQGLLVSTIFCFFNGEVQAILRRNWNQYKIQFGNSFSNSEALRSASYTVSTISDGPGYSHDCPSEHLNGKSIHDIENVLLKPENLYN
Sequence of CLR/RAMP1 receptor (O60894 27-148): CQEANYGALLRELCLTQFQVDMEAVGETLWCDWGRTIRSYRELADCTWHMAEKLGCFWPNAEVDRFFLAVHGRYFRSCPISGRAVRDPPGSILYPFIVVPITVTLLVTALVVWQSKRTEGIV

Structure (SMILES)	HLEC survival (in words) [1]	receptor specificity of antagonist (CLR/RAMP1 receptor)	further results
CC[C@H](C)[C@H](NC(=O)[C@H](CCC(N)=O)NC(=O)[C@H](Cc1c[nH]cn1)NC(=O)[C@H](C)NC(=O)[C@H](CC(C)C)NC(=O)[C@H](CCCCN)NC(=O)[C@H](CCC(N)=O)NC(=O)[C@@H](NC(=O)[C@@H](NC(C)=O)[C@@H](C)O)C(C)C)C(=O)N[C@@H](Cc1ccc(O)cc1)C(=O)N[C@@H](CCC(N)=O)C(=O)N[C@@H](Cc1ccccc1)C(=O)N[C@H](C(=O)N[C@@H](CC(=O)O)C(=O)N[C@@H](CCCCN)C(=O)N[C@@H](CC(=O)O)C(=O)N[C@@H](CCCCN)C(=O)N[C@@H](CC(=O)O)C(=O)N[C@@H](CC(N)=O)C(=O)N[C@@H](CO)C(=O)N[C@@H](C)C(=O)N1CCC[C@H]1C(=O)N[C@H](C(=O)N[C@@H](CC(=O)O)C(=O)N1CCC[C@H]1C(=O)N[C@@H](CO)C(=O)N[C@@H](CO)C(=O)N1CCC[C@H]1C(=O)N[C@@H](Cc1c[nH]cn1)C(=O)N[C@@H](CO)C(=O)N[C@@H](Cc1ccc(O)cc1)C(N)=O)C(C)C)[C@@H](C)O [SEQ ID NO: 76]			antagonistic activity toward CLR/RAMP1 and/or CLR/RAMP2 receptor signaling (in words) (CLR/RAMP1 receptor; statement covers CGRP-stimulated CLR/RAMP1 and ADM-stimulated CLR/RAMP2): mildly improved antagonistic activity
CSCC[C@H](NC(=O)[C@H](CC(C)C)NC(=O)[C@H](CCC(N)=O)NC(=O)[C@H](Cc1c[nH]c2ccccc12)NC(=O)[C@H](CC(C)C)NC(=O)[C@H](CCCNC(=N)N)NC(=O)[C@H](Cc1c[nH]cn1)NC(=O)[C@H](CO)NC(=O)[C@H](CC(C)C)NC(=O)[C@H](CC(N)=O)NC(=O)[C@H](CCC(N)=O)NC(=O)[C@@H](NC(=O)[C@H](CCC(N)=O)NC(=O)[C@@H]1CSSC[C@H](NC(=O)CNC(=O)[C@@H](NC(C)=O)C(C)C)C(=O)N[C@@H](C(C)C)C(=O)N[C@@H](CC(C)C)C(=O)NCC(=O)N[C@@H]([C@@H](C)O)C(=O)N1)C(C)C)C(=O)NCC(=O)N1CCC[C@H]1C(=O)N[C@@H](C)C(=O)NCC(=O)N[C@@H](CCCNC(=N)N)C(=O)N[C@@H](CCC(N)=O)C(=O)N[C@@H](CC(=O)O)C(=O)N[C@@H](CO)C(=O)N[C@@H](C)C(=O)N1CCC[C@H]1C(=O)N[C@H](C(=O)N[C@@H](CC(=O)O)C(=O)N1CCC[C@H]1C(=O)N[C@@H](CO)C(=O)N[C@@H](CO)C(=O)N1CCC[C@H]1C(=O)N[C@@H](Cc1c[nH]cn1)C(=O)N[C@@H](CO)C(=O)N[C@@H](Cc1ccc(O)cc1)C(N)=O)C(C)C [SEQ ID NO: 52, reference compound]	minimal effects; also recorded: negligible effects		
CCCCCCCCCCCCCCCC(=O)N[C@@H](CCCCN)C(=O)N[C@H](C(=O)N[C@@H](CCC(N)=O)C(=O)N[C@@H](CCCCN)C(=O)N[C@@H](CC(C)C)C(=O)N[C@@H](C)C(=O)N[C@@H](Cc1c[nH]cn1)C(=O)N[C@@H](CCC(N)=O)C(=O)N[C@H](C(=O)N[C@@H](Cc1ccc(O)cc1)C(=O)N[C@@H](CCC(N)=O)C(=O)N[C@@H](Cc1ccccc1)C(=O)N[C@H](C(=O)N[C@@H](CC(=O)O)C(=O)N[C@@H](CCCCN)C(=O)N[C@@H](CO)C(=O)N[C@@H](C)C(=O)N1CCC[C@H]1C(=O)N[C@H](C(=O)N[C@@H](CC(=O)O)C(=O)N1CCC[C@H]1C(=O)N[C@@H](CO)C(=O)N[C@@H](CO)C(=O)N1CCC[C@H]1C(=O)N[C@@H](Cc1c[nH]cn1)C(=O)N[C@@H](CO)C(=O)N[C@@H](Cc1ccc(O)cc1)C(N)=O)C(C)C)[C@@H](C)O)[C@@H](C)CC)C(C)C [SEQ ID NO: 125]		pan-specific	
CCCCCCCCCCCCCCCC(=O)N[C@@H](CCCCN)C(=O)N[C@H](C(=O)N[C@@H](CCCCN)C(=O)N[C@@H](CCCCN)C(=O)N[C@H](C(=O)N[C@@H](CC(C)C)C(=O)N[C@@H](CCCNC(=N)N)C(=O)N[C@H](C(=O)NCC(=O)N[C@H]1CSSC[C@@H](C(=O)N[C@H](C(=O)N[C@H](C(=O)N[C@@H](CCC(N)=O)C(=O)N[C@@H](CCCCN)C(=O)N[C@@H](CC(C)C)C(=O)N[C@@H](C)C(=O)N[C@@H](Cc2c[nH]cn2)C(=O)N[C@@H](CCC(N)=O)C(=O)N[C@H](C(=O)N[C@@H](Cc2ccc(O)cc2)C(=O)N[C@@H](CCC(N)=O)C(=O)N[C@@H](Cc2ccccc2)C(=O)N[C@H](C(=O)N[C@@H](CC(=O)O)C(=O)N[C@@H](CCCCN)C(=O)N[C@@H](CC(=O)O)C(=O)N[C@@H](CCCCN)C(=O)N[C@@H](CC(=O)O)C(=O)N[C@@H](CC(N)=O)C(=O)N[C@H](C(=O)N[C@@H](C)C(=O)N2CCC[C@H]2C(=O)N[C@H](C(=O)N[C@@H](CC(=O)O)C(=O)N2CCC[C@H]2C(=O)N[C@@H](CO)C(=O)N[C@@H](CO)C(=O)N2CCC[C@H]2C(=O)N[C@@H](Cc2c[nH]cn2)C(=O)N[C@@H](CO)C(=O)N[C@@H](Cc2ccc(O)cc2)C(N)=O)C(C)C)C(C)C)[C@@H](C)O)[C@@H](C)CC)C(C)C)[C@@H](C)O)NC(=O)[C@H]([C@@H](C)O)NC(=O)CNC(=O)[C@H](Cc2ccccc2)NC(=O)[C@H](CCCNC(=N)N)NC1=O)[C@@H](C)O)[C@@H](C)O)[C@@H](C)O [SEQ ID NO: 40]	dose-dependently stimulated; also recorded: significantly promote		
CCCCCCCCCCCCCCCC(=O)N[C@@H](CCCCN)C(=O)N[C@H](C(=O)N[C@@H](CCC(N)=O)C(=O)N[C@@H](CC(N)=O)C(=O)N[C@@H](CC(C)C)C(=O)N[C@@H](CO)C(=O)N[C@@H](Cc1c[nH]cn1)C(=O)N[C@@H](CCCNC(=N)N)C(=O)N[C@@H](CC(C)C)C(=O)N[C@@H](Cc1c[nH]c2ccccc12)C(=O)N[C@@H](CCC(N)=O)C(=O)N[C@@H](CC(C)C)C(=O)N[C@@H](CCSC)C(=O)NCC(=O)N1CCC[C@H]1C(=O)N[C@@H](C)C(=O)NCC(=O)N[C@@H](CO)C(=O)N[C@@H](C)C(=O)N1CCC[C@H]1C(=O)N[C@H](C(=O)N[C@@H](CC(=O)O)C(=O)N1CCC[C@H]1C(=O)N[C@@H](CO)C(=O)N[C@@H](CO)C(=O)N1CCC[C@H]1C(=O)N[C@@H](Cc1c[nH]cn1)C(=O)N[C@@H](CO)C(=O)N[C@@H](Cc1ccc(O)cc1)C(N)=O)C(C)C)C(C)C [SEQ ID NO: 120]		CLR/RAMP1-specific	
CCCCCCCCCCCCCCCC(=O)NCCCC[C@H](NC(=O)[C@@H](NC(C)=O)[C@@H](C)O)C(=O)N[C@@H](CCCCN)C(=O)N[C@H](C(=O)N[C@@H](CC(C)C)C(=O)N[C@@H](CCCNC(=N)N)C(=O)N[C@H](C(=O)NCC(=O)N[C@H]1CSSC[C@@H](C(=O)N[C@H](C(=O)N[C@H](C(=O)N[C@@H](CCC(N)=O)C(=O)N[C@@H](CCCCN)C(=O)N[C@@H](CC(C)C)C(=O)N[C@@H](C)C(=O)N[C@@H](Cc2c[nH]cn2)C(=O)N[C@@H](CCC(N)=O)C(=O)N[C@H](C(=O)N[C@@H](Cc2ccc(O)cc2)C(=O)N[C@@H](CCC(N)=O)C(=O)N[C@@H](Cc2ccccc2)C(=O)N[C@H](C(=O)N[C@@H](CC(=O)O)C(=O)N[C@@H](CCCCN)C(=O)N[C@@H](CC(=O)O)C(=O)N[C@@H](CCCCN)C(=O)N[C@@H](CC(=O)O)C(=O)N[C@@H](CC(N)=O)C(=O)N[C@@H](CO)C(=O)N[C@@H](C)C(=O)N2CCC[C@H]2C(=O)N[C@H](C(=O)N[C@@H](CC(=O)O)C(=O)N2CCC[C@H]2C(=O)N[C@@H](CO)C(=O)N[C@@H](CO)C(=O)N2CCC[C@H]2C(=O)N[C@@H](Cc2c[nH]cn2)C(=O)N[C@@H](CO)C(=O)N[C@@H](Cc2ccc(O)cc2)C(N)=O)C(C)C)[C@@H](C)O)[C@@H](C)CC)C(C)C)[C@@H](C)O)NC(=O)[C@H]([C@@H](C)O)NC(=O)CNC(=O)[C@H](Cc2ccccc2)NC(=O)[C@H](CCCNC(=N)N)NC1=O)[C@@H](C)O)[C@@H](C)O [SEQ ID NO: 39]	dose-dependently stimulated; also recorded: significantly promote		
